The results in this text go back to patent US20020103120A1, “Regulation of human phosphodiesterase-like enzyme” (priority 2000, published 2002).

The target of data set [1] is T1, PDE11A4 (Homo sapiens, UniProt Q9HCR9).
T1 construct: His-tag (N); made in house; host or cells: Sf21 insect cells (baculovirus)
The data set can be described thus: PDE11A4 scintillation proximity assay (SPA), inhibition of [3H]-cGMP hydrolysis. The format is biochemical. Particulars: 0.4 μM [3H]-cGMP, 1 ng PDE11A4, RT 1 h, His-tagged recombinant enzyme.
Experimental: Effect of IBMX and dipyridamole was tested. Assays were performed in 384-well white plates in 20 μl containing the indicated concentration of inhibitor, 0.4 μM [^3H]-cGMP (0.025 μCi/well) and 1 ng PDE11A4 in 50 mM Tris-HCl, pH 7.5, 8.3 mM MgCl2, 1.7 mM EGTA, 0.5 mg/ml BSA. Reaction mixtures were incubated at RT for 1 h, then quenched with 30 μl of 18 mM ZnSO4 containing 0.15 mg Yttrium SPA PDE beads. The assay plates were sealed, allowed to settle for 30 min at RT, and counted on a TopCount NTX microscintillation counter (Packard). Reactions were run in triplicate.

Data set [2] has as its system human PDE-like enzyme. The data set can be described thus: Expression of human PDE-like enzyme by Western blotting in oligonucleotide-treated HCT116 cells. The format is cell-based. As to conditions: HCT116, oligonucleotide added for seven days. How it is done:
The cell line used for testing is the human colon cancer cell line HCT116. Cells are cultured in RPMI-1640 with 10-15% fetal calf serum at a concentration of 10,000 cells per milliliter in a volume of 0.5 ml and kept at 37° C. in a 95% air/5%CO2 atmosphere.
Phosphorothioate […] are synthesized on an Applied Biosystems Model 380B DNA synthesizer using phosphoroamidite chemistry. A sequence of 24 bases complementary to the nucleotides at position 1 to 24 of SEQ ID NO: 1 is used as the test oligonucleotide. As a control, another (random) sequence is used: 5′-TCAACTGACTAGATGTACATGGAC-3′. Following assembly and deprotection, oligonucleotides are ethanol-precipitated twice, dried, and suspended in phosphate buffered saline at the desired concentration. Purity of the oligonucleotides is tested by capillary gel electrophoresis and ion exchange HPLC. The purified oligonucleotides are added to the culture medium at a concentration of […] once per day for seven days.
This effect is not observed with the control oligonucleotide. After 3 to 7 days, the number of cells in the cultures is counted using an automatic cell counter. The number of cells in cultures treated with the test oligonucleotide (expressed as 100%) is compared with the number of cells in cultures treated with the control oligonucleotide.
(In general: A western blot detects proteins with antibodies after separation by electrophoresis.)

Data set [3] concerns the target T1, PDE11A4. The data set can be described thus: Lineweaver-Burk analysis of PDE11A4 SPA to determine Km for cGMP. It counts as biochemical. As to conditions: 1 ng PDE11A4, various cGMP concentrations, RT, 0-90 min. The procedure:
FIG. 17. Lineweaver-Burk analysis to determine Km values for cGMP. Reaction mixtures (20 μl/well) containing 1 ng PDE11A4 and various concentrations of cGMP (1.25 mCi/μmol) were incubated at RT. At various time points between 0 and 90 min the reactions were stopped with 30 μl of 18 mM ZnSO4 containing 0.15 mg Yttrium SPA PDE beads. The assay plates were sealed, allowed to settle for 30 min at RT, and counted on a TopCount NTX microscintillation counter (Packard). Reactions were run in triplicate. A, Time courses of PDE11A4 reaction with various concentration of cGMP. B, Lineweaver-Burk analysis. The Km value for cGMP was determined as 0.4 μM.
Expression of recombinant PDE11A4 was examined by baculovirus expression system in Sf21 cells with or without His-tag at the N-terminus. Since both expression level and enzyme activity of the His-tagged PDE11A4 (His-PDE11A4) was much higher than those of non-tagged enzyme (FIG. 15), His-PDE11A4 was selected for further use. The maximum expression level and activity were obtained from the cells cultured 24 to 48 h after transfection. The His-PDE11A4 was successfully purified by Ni^2+-chelating column chromatography (FIG. 16). The assay was carried out in scintillation proximity assay (SPA) using cGMP as substrate. Km value for cGMP was determined to be 0.4 μM (FIG. 17). […]

Values joined by “and” are separate entries in the source; they are usually repeats but may differ in a detail not shown here. Equal entries are not always repeated.

T1 sequence (Q9HCR9 whole entry): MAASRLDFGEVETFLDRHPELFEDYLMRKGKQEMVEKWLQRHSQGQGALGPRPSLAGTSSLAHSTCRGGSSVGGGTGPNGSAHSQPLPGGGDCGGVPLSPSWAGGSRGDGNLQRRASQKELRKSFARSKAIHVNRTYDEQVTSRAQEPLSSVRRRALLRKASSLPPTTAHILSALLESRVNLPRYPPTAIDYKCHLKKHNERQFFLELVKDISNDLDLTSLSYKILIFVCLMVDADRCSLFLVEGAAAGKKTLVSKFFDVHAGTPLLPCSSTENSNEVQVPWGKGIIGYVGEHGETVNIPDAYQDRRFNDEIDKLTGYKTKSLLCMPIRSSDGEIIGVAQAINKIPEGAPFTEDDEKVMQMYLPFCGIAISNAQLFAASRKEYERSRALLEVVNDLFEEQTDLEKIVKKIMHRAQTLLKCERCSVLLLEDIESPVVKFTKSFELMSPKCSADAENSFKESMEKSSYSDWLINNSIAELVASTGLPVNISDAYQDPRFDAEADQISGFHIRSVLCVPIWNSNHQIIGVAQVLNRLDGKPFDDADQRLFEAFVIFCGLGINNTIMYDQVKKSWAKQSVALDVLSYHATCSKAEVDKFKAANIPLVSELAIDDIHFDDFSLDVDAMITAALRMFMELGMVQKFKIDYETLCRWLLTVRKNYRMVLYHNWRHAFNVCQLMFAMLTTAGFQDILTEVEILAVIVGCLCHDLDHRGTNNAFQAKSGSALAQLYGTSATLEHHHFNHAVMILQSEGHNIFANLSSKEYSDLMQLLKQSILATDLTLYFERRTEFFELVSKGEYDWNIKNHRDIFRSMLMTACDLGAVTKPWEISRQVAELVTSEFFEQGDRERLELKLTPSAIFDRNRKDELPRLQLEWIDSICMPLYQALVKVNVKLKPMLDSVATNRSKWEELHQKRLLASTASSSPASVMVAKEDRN

As usually defined, the IC50 is the concentration at which inhibition is half-maximal. For the compound `CC(C)Cn1c(=O)n(C)c(=O)c2[nH]cnc21` [IBMX], the IC50 in data set [1] was 41 µM and 41.3 µM.
“control oligonucleotide: control (random) sequence 5′-TCAACTGACTAGATGTACATGGAC-3′ (DNA TCAACTGACTAGATGTACATGGAC; chemistry not given here)”: the “expression of human PDE-like enzyme (Western blotting)” value in data set [2] is given as “not observed”.
A word on the Km: it is the concentration of substrate that gives half-maximal velocity. As for `Nc1nc2c(ncn2[C@@H]2O[C@@H]3COP(=O)(O)O[C@H]3[C@H]2O)c(=O)[nH]1` [cGMP], in data set [3], the Km came out at 0.4 µM.
